Patent US20080038228A1, “Method” (Danisco A/S, priority 2003, published 2008)
“Also recorded” adds a separate entry of the source.

How the values were obtained:
[1] = test system: indomethacin-induced gastrointestinal damage; assay: Combined live Bifidobacterium and betaine in indomethacin-challenged rats, damage area (Experiment 4); format: in vivo, rat; conditions: Experiment 4, indomethacin-challenged male Wistar rats; Bifidobacterium 10^10 and betaine 200 mg daily per animal; preliminary investigations
Protocol: Male Wistar rats as described previously in Experiment 3 above are split into the following treatment groups: a control, an indomethacin challenge group as a control, and treatment groups 3-5, which receive intervention treatment by live Bifidobacterium (10^10 daily dose per animal) and betaine (200 mg of daily dose per animal) either separately or in combination. Damage is determined from the sacrificed rats only.

[2] = test system: indomethacin-induced gastrointestinal damage; assay: Rat model of indomethacin-induced gastrointestinal damage, damage area (Experiment 3); format: in vivo; conditions: male Wistar rats
Text: (§1) A previously described rat model was used to study indomethacin-induced gastrointestinal damage (see Meddings and Gibbons, Gastroenterology 1998; 114:83-92). Briefly, male Wistar rats were used and ten rats were included in each treatment group. Five different treatments were included: control group with no indomethacin treatment, indomethacin control group with no intervention treatment, indomethacin with 10^8 Bifidobacterium per rat, indomethacin with 10^10 Bifidobacterium per rat, and indomethacin with betaine (200 mg/rat). A single dose of indomethacin (10 mg/kg) was given p.o. preceded by a seven-day intervention with or without Bifidobacterium or betaine. In addition, a mixture of sucrose, lactulose, mannitol and sucralose was given p.o to measure gastrointestinal (GI) permeability. Urine samples were obtained at 16 hours after the challenge with indomethacin and prior to sacrificing the animals. Mucosa of the stomach and the intestine were examined by a pathologist and tissue samples of healthy-appearing mucosa for RNA isolation were collected from stomach, proximal and distal small intestine, caecum and proximal and distal colon. RNA was isolated and expression of cyclooxygenase-1 and -2 (COX-1 and COX-2, respectively) were determined by QPCR.

[3] = test system: gastrointestinal (GI) permeability; assay: Gastrointestinal permeability, urine concentrations of marker sugars in indomethacin-challenged rats (Experiment 3); format: in vivo, rat; conditions: male Wistar rats, single dose 10 mg/kg p.o., urine at 16 hours
Text: as §1

[4] = test system: cyclooxygenase 2 gene expression in Caco2 cells; assay: Caco-2 cell-based exposure test, Cox-2 gene expression (Experiment 1: selected metabolites and co-cultured bacterium); design: species or system human; conditions: 24 hour treatment, metabolites 5 mM, bacterium co-cultured in membrane insert
Protocol: (§2) The human colorectal carcinoma cell line Caco-2 was grown at 37° C. and 5% CO2 in serum-free Dulbeccos' MEM (Gibco) supplemented with 1 mM sodium pyruvate (Gibco) and 1× non-essential amino acids (Gibco) (DMEM). When grown without added bacteria, 20 Uml^−1 penicillin (Gibco), 20 μgml^−1 streptomycin (Gibco) and 0.5 μgml^−1 amphotericin (Gibco) were added to the medium. Bifidobacterium sp. 420 was grown anaerobically for 48 hours at 37° C. in a BIF medium consisting of 10 gl^−1 tryptic digest of casein peptone; 5 gl^−1 meat extract; 5 gl^−1 yeast extract; 10 gl^−1 glucose; 3 gl^−1 K2HPO4; 0.1% (volume/volume) Tween 80; 1% ascorbic acid and 0.05% cysteine-HCl; pH 6.8. 2 ml of logarithmic phase culture was centrifuged at 4000 rpm for 3 minutes. The cell pellet was suspended in 1.6 ml DMEM. The production of short chain organic acids by the bacterium was tested from fresh and conditioned bifidobacterium medium using gas chromatography.
To determine the effects of various treatments on the Cox-1/Cox-2 expression pattern, approximately 500 000 Caco-2 cells/well were seeded on 24-well cell culture plates. The cells were allowed to attach for 24 hours, after which the media were replaced by fresh media (total volume 1 ml/well) containing either no other added components than the ones described above (control treatments, with and without antibiotics) or antibiotic supplemented media with 5 mM sodium butyrate; 5 mM sodium propionate; 5 mM sodium acetate or 5 mM sodium lactate. In addition, wells were prepared that contained no antibiotics but a 0.2 μm anopore membrane tissue culture insert (Nunc, Denmark) into which 100 μl of the bacterial suspension described above was added.
After 24 hour exposure, media and culture inserts were discarded, cells were lysed and RNA was extracted using Qiagen's (Germany) RNEasy Mini Kit DNA was digested using the same manufacturer's RNase free DNase. Reverse transcription was performed using the High Capacity cDNA Archive Kit (Applied Biosystems, USA) according to the instructions provided by the manufacturer. Cox-1/Cox-2 expression patterns were determined by real-time quantitative TaqMan PCR (Holland et al., 1991 Proc. Natl. Acad. Sci. USA August 15; 88(16): 7276-80; and Livak and Scmittgen, 2001 Methods December; 25(4):402-8) using the default settings of an ABIPrism 7000 Sequence Detection instrument (Applied Biosystems).

[5] = test system: cyclooxygenase 1 gene expression in Caco2 cells; assay: Caco-2 cell-based exposure test, Cox-1 gene expression (Experiment 1: selected metabolites and co-cultured bacterium); design: species or system human; conditions: 24 hour treatment, metabolites 5 mM, bacterium co-cultured in membrane insert
Protocol: as §2, with “The production of short chain organic acids by the bacterium was tested from fresh and conditioned bifidobacterium medium using gas chromatography.” left out
(§3) After 24 hour exposure, media and culture inserts were discarded, cells were lysed and RNA was extracted using Qiagen's (Germany) RNEasy Mini Kit DNA was digested using the same manufacturer's RNase free DNase. […] Cox-1/Cox-2 expression patterns were determined by real-time quantitative TaqMan PCR (Holland et al., 1991 Proc. Natl. Acad. Sci. USA August 15; 88(16): 7276-80; and Livak and Scmittgen, 2001 Methods December; 25(4):402-8) using the default settings of an ABIPrism 7000 Sequence Detection instrument (Applied Biosystems).

[6] = test system: Cox-1/Cox-2 expression pattern in Caco-2 cells; assay: Cox-1/Cox-2 ratio and expression pattern in Caco-2 cells; format: cell-based, human; conditions: Experiment 1, Caco-2 cells, 24 hour exposure
Protocol: To determine the effects of various treatments on the Cox-1/Cox-2 expression pattern, approximately 500 000 Caco-2 cells/well were seeded on 24-well cell culture plates. The cells were allowed to attach for 24 hours, after which the media were replaced by fresh media (total volume 1 ml/well) containing either no other added components than the ones described above (control treatments, with and without antibiotics) or antibiotic supplemented media with 5 mM sodium butyrate; 5 mM sodium propionate; 5 mM sodium acetate or 5 mM sodium lactate. […]
as §3
Two bifidobacteria (Bifidobacterium sp. 420 and Bifidobacterium longum 913) were cultured as described in Experiment 1. […] Bacterial growth was stopped by chilling confluent cultures on ice, after which cell densities were determined by flow cytometry (FACS Calibur, Becton Dickinson). […]

Cox-2 expression = conditions: according to prior art; cited from earlier work

Structure (SMILES): C[N+](C)(C)CC(=O)[O-] [Betaine, trimethylglycine]
- damage area in the gastrointestinal tract [1]: tends to decrease
- pathological damage area ([2]; seven-day intervention, then indomethacin 10 mg/kg p.o.): tendency to decrease; also recorded: somewhat reduced

Structure (SMILES): COc1ccc2c(c1)c(CC(=O)O)c(C)n2C(=O)c1ccc(Cl)cc1 [Indomethacin, indomethacin]
- urine concentrations of marker sugars after the challenge [3]: significant increase
- gross pathological changes (ulceration) ([2]; single dose 10 mg/kg p.o.): induced ulceration mainly to fundic stomach, but also to pyloric stomach

Structure (SMILES): CC(=O)[O-].[Na+] [acetate, sodium acetate]
- Cox-2 gene expression level, fold change in relation to the control [4]: 1.17 fold change
- Cox-1 gene expression level, fold change in relation to the control [5]: 2.08 fold change

Structure (SMILES): CCCC(=O)[O-].[Na+] [butyrate, sodium butyrate]
- Cox-2 gene expression level, fold change in relation to the control [4]: 0.15 fold change
- Cox-1/Cox-2 ratio / expression pattern (FIG. 1) [6]: increase
- effect on Cox-2 expression (Cox-2 expression): lowering effect

Structure (SMILES): CC(O)C(=O)[O-].[Na+] (centres unmarked) [lactate, sodium lactate]
- Cox-2 gene expression level, fold change in relation to the control [4]: 0.74 fold change
- Cox-1 gene expression level, fold change in relation to the control [5]: 0.91 fold change

Structure (SMILES): CCC(=O)[O-].[Na+] [propionate, sodium propionate]
- Cox-2 gene expression level, fold change in relation to the control [4]: 0.36 fold change
- Cox-1/Cox-2 ratio / expression pattern (FIG. 1) [6]: increase
- effect on Cox-2 expression (Cox-2 expression): lowering effect
